{
  "source": "patent US10183038B2",
  "about": "“Method for preventing and treating renal disease” (L & F Research LLC, priority 2010, dated 2019)",
  "key": {"LPS induced proteinuria": {"tested_on": "LPS induced proteinuria", "assay": "LPS induced proteinuria in mice", "type": "in vivo", "details": "4000 mg/kg intravenously 1 hour prior to LPS, urines 30 hours after first LPS injection, p<0.05 LPS+CD versus LPS", "description": "FIG. 6A-FIG. 6B: Depicts that CD partially prevents LPS induced podocyte damage. FIG. 6A: Depicts the results when HPBCD was administered intravenously (4000 mg/kg) 1 hour prior to LPS injection (200 ug/20 g mouse intraperitoneally). Urines were collected […] after LPS injection and analyzed for albumin/creatinine ratio by ELISA. p<0.05 when comparing LPS+CD versus LPS. FIG. 6B: Depicts that CD prevented LPS induction of MyD88 in isolated glomeruli in vivo. Referring to FIG. 6A, the antiproteinuric effects of CD were tested in an established experimental model of LPS induced proteinuria. Three mice per group were utilized. Mice were left untreated (CTRL), or received one injection of 4000 mg/kg Hydroxypropyl-beta-cyclodextrin (CD), or two injections of 200 μg LPS 24 hours apart (LPS), or received 4000 mg/kg of CD 1 hour prior to LPS treatment (LPS+CD). Urines were collected at 30 hours after the first LPS injection and analyzed for albumin and creatinine content by ELISA. Albuminuria was determined as the ratio between albumin and creatinine (μg/mg)."}, "[1]": {"tested_on": "human podocytes exposed to DM w DN sera", "assay": "Human podocytes exposed to sera of diabetic patients with DN (blebbing, cholesterol, apoptosis)", "type": "cell-based", "details": "normal human podocytes exposed to sera of patients with diabetic nephropathy; cholesterol depletion with Methyl-beta-cyclodextrin", "description": "DN is a chronic progressive disease that affects a sizable subset of patients with diabetes. Despite the identification of multiple risk factors that contribute to the development of DN, it has remained difficult to identify the subset of patients with diabetes at risk for DN. This led to testing to determine if an in vitro prediction assay could be developed. For this purpose, the following experiments were conducted. Non-identifiable samples of patient sera were obtained. Samples consisted of serum collected from 10 patients with diabetes and macroalbuminuria (DM w DN) and 10 diabetic normoalbuminuric patients (DM w/o DN) well matched for HgA1C (7.9%), total cholesterol levels and the duration of diabetes. Normal human sera (NHS) from 10 age and sex matched healthy subjects were also utilized as controls. Differentiated human podocytes were serum starved for 24 hours and then exposed to 4% serum of NHS, DM w/o DN, DM w DN for 24 hours. […] Total cholesterol was also determined with an enzymatic reaction. Total cholesterol was increased in podocytes treated with DM w DN when compared to DM w/o DN and NHS (FIG. 3D, *p<0.05), a phenomenon that was prevented by CD (FIG. 3D, #p<0.05). Cell blebbing was predictive of DN, as sera collected from patients before progressing to DN at the time they were normoalbuminuric already caused cell blebbing (FIG. 3E)."}, "[2]": {"tested_on": "patients at high risk for recurrent FSGS after transplantation", "assay": "Clinical outcome after kidney transplantation in patients at high risk for recurrent FSGS, rituximab vs historical controls", "type": "in vivo, human"}, "SMPDL-3B [3]": {"target": "T1, SMPDL-3B (Homo sapiens, UniProt Q92485)", "T1 sequence (Q92485 19-455)": "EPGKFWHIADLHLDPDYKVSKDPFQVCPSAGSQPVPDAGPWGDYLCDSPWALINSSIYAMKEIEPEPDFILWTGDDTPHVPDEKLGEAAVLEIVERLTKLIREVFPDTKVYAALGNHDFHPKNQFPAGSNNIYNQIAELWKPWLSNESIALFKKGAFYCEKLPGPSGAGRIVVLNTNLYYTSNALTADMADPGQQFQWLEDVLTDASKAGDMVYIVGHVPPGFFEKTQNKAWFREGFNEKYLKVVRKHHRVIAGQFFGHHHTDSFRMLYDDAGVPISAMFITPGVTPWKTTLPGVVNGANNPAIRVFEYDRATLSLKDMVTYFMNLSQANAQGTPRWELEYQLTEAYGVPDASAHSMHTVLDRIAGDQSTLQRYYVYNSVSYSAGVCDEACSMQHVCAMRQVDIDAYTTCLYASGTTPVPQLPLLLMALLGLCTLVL", "details": "cited from earlier work"}, "CD19+ cells": {"tested_on": "CD19+ cells", "assay": "CD19 count in transplanted FSGS patients after rituximab", "type": "in vivo, human", "details": "N = 27", "description": "W=white, B=black, M=male, F=female, ESRD=end stage renal disease, LD=living donor, DD=deceased donor. ΔeGFR: variation of eGFR. *p<0.05."}, "SMPDL-3b [4]": {"tested_on": "SMPDL-3b", "assay": "SMPDL-3b expression in podocytes cultured with FSGS patient sera", "type": "cell-based, human", "details": "recurrent FSGS (FIG. 2)", "description": "FIG. 2A: Depicts low- and high-power images of immunoperoxidase staining for SMPDL-3b and synaptopodin in post-reperfusion biopsies of patients with recurrent (REC) and non-recurrent (NON-REC) FSGS. Arrows point to podocytes. Scale bars: 25 μm top and 15 μm bottom. […] All kidney biopsies were obtained prior to initiation of treatment with rituximab. An average of 13±4 glomeruli per patient were analyzed. *p<0.05, unpaired Student's t test. Data are mean±s.d. […] Data are mean±s.d. *p<0.05 and **p<0.01 by one-way ANOVA. […] Data are mean±s.d. *p<0.05 and **p<0.01 by one-way ANOVA. […] Data are mean±s.d. *p<0.05 and **p<0.01 by one-way ANOVA. […] Data are mean±s.d. *p<0.05 and **p<0.01 by one-way ANOVA.\n(A) Low- and high-power images of immunoperoxidase staining for SMPDL-3b and synaptopodin in post-reperfusion biopsies of patients with recurrent (REC) and non-recurrent (NON-REC) FSGS. Arrows point to podocytes. […] All kidney biopsies were obtained prior to initiation of treatment with rituximab. […] (G) ASMase activity per μg of total lysate protein, as evaluated by ELISA."}, "[5]": {"details": "number of patients (%), N = 27, one dose of rituximab (375 mg/m^2) within 24 hours of transplant"}},
  "data": [
    {"molecule": "CC(O)COC[C@H]1O[C@@H]2O[C@H]3[C@H](O)[C@@H](O)[C@@H](O[C@H]4[C@H](O)[C@@H](O)[C@@H](O[C@H]5[C@H](O)[C@@H](O)[C@@H](O[C@H]6[C@H](O)[C@@H](O)[C@@H](O[C@H]7[C@H](O)[C@@H](O)[C@@H](O[C@H]8[C@H](O)[C@@H](O)[C@@H](O[C@H]1[C@H](O)[C@H]2O)O[C@@H]8COCC(C)O)O[C@@H]7COCC(C)O)O[C@@H]6COCC(C)O)O[C@@H]5COCC(C)O)O[C@@H]4COCC(C)O)O[C@@H]3COCC(C)O", "note": "(stereo partly drawn) [Hydroxypropyl-beta-cyclodextrin]", "values": [
      {"measurement": "LPS induced proteinuria (albumin/creatinine ratio by ELISA)", "setting": "LPS induced proteinuria", "result": "protects from Lipopolysaccharide (LPS) induced proteinuria"}
    ]},
    {"molecule": "Methyl-beta-cyclodextrin", "values": [
      {"measurement": "cell blebbing", "setting": "[1]", "result": "prevents"}
    ]},
    {"molecule": "rituximab", "values": [
      {"measurement": "Graft survival", "setting": "[2]; 6 months, N = 27", "result": 100, "unit": "%"},
      {"measurement": "Graft survival", "setting": "[2]; 12 months, N = 27", "result": 95.8, "unit": "%"},
      {"measurement": "difference in graft survival between groups", "setting": "[2]; at 6 and 12 months, rituximab group vs control group", "result": "no significant difference"},
      {"measurement": "incidence of recurrent nephrotic range proteinuria and need for plasmapheresis", "setting": "[2]; between day 3 and 30 after transplantation, rituximab group vs control group", "result": "significantly lower"},
      {"measurement": "Nephrotic proteinuria w/i 1 Mo", "setting": "[2]; [5]", "result": "7 (26%)"},
      {"measurement": "Plasmapheresis w/I 1 Mo", "setting": "[2]; [5]", "result": "8 (30%)"},
      {"measurement": "binding to SMPDL-3B", "setting": "SMPDL-3B [3]", "result": "found to bind SMPDL-3B"},
      {"measurement": "CD 19 count", "setting": "CD19+ cells; Week 0", "result": "360 ± 223"},
      {"measurement": "CD 19 count", "setting": "CD19+ cells; Week 0.5", "result": "107 ± 115"},
      {"measurement": "CD 19 count", "setting": "CD19+ cells; Week 1", "result": "45 ± 31"},
      {"measurement": "CD 19 count", "setting": "CD19+ cells; Week 2", "result": "16 ± 23"},
      {"measurement": "CD 19 count", "setting": "CD19+ cells; Week 3", "result": "5 ± 6"},
      {"measurement": "CD 19 count", "setting": "CD19+ cells; Week 4", "result": "6 ± 7"},
      {"measurement": "downregulation of SMPDL-3b", "setting": "SMPDL-3b [4]", "result": "prevents the downregulation of SMPDL-3b"}
    ]}
  ]
}
